Test results as given in ChEMBL document CHEMBL5331104, “Discovery of BRD4-HDAC Dual Inhibitors with Improved Fungal Selectivity and Potent Synergistic Antifungal Activity against Fluconazole-Resistant Candida albicans” (J Med Chem, 2023).
Values after ≈ are worked out from the molar mass of the structure shown. Active and inactive are the calls of the source. The calls are words filed in the database; no cut-off is given here.

Columns and labels:
Candida albicans [1] = assay: Downregulation of ERG11 expression in Candida albicans 0304103 at 32 ug/mL incubated for 24 hrs in the presence of fluconazole by RT q-PCR analysis; format: functional; conditions: dose 32.0 µg/ml
Histone deacetylase 1 = Histone deacetylase 1 (Homo sapiens, UniProt Q13547); assay: Inhibition of full-length recombinant human HDAC1 (1 to 482 residues) expressed in baculovirus infected insect cells using […] as substrate incubated for 30 mins by fluorescence based analysis; set-up: species or system Insect cell
Sequence of Histone deacetylase 1 (Q13547 whole entry, the tested form may be a part): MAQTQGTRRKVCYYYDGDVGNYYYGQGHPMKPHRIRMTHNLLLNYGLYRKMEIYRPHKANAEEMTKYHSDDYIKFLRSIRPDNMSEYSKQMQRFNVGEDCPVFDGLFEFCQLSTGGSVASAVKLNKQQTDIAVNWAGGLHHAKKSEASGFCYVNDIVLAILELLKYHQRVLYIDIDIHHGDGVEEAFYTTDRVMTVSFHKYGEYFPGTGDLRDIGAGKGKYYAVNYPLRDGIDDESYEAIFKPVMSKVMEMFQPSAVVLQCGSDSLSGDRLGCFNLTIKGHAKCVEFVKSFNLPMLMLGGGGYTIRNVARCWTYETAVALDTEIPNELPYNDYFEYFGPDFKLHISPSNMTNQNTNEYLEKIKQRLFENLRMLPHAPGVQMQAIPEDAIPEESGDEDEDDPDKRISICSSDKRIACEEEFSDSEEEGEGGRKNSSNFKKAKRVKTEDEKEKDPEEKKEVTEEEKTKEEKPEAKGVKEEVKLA

Candida albicans [2] = assay: Downregulation of CDR1 expression in Candida albicans 0304103 at 32 ug/mL incubated for 24 hrs in the presence of fluconazole by RT q-PCR analysis; format: functional; conditions: dose 32.0 µg/ml
Candida albicans [3] = assay: Antifungal activity against Candida albicans SC5314 assessed as fungal growth inhibition incubated for 24 hrs by broth dilution method; format: functional
[Candida] auris [4] = Synergetic antifungal activity against Candida auris 0030 assessed as microbial growth inhibition incubated for 24 hrs in the presence of fluconazole by checkerboard microdilution method; format: functional; conditions: Candidozyma auris
Candida albicans [5] = assay: Downregulation of MDR1 expression in Candida albicans 0304103 at 32 ug/mL incubated for 24 hrs in the presence of fluconazole by RT q-PCR analysis; format: functional; conditions: dose 32.0 µg/ml
Candida albicans [6] = assay: Antibiofilm activity against FLC-resistant Candida albicans 0304103 assessed as reduction in fungal growth at 32 ug/mL and measured for 48 hrs by time-growth curve assay; format: functional, organism-based; conditions: dose 32.0 µg/ml
Candida albicans [7] = assay: Antifungal activity against Candida albicans 9884 assessed as microbial growth inhibition; format: functional
[Candida] auris [8] = Synergetic antifungal activity against Candida auris 0029 assessed as fractional inhibitory concentration index incubated for 24 hrs in the presence of fluconazole by checkerboard microdilution method; format: functional, Candidozyma auris
Candida albicans [9] = assay: Downregulation of CDR2 expression in Candida albicans 0304103 at 32 ug/mL incubated for 24 hrs in the presence of fluconazole by RT q-PCR analysis; format: functional; conditions: dose 32.0 µg/ml
Nakaseomyces glabratus [10] = assay: Synergetic antifungal activity against Candida glabrata 4408 assessed as fractional inhibitory concentration index incubated for 24 hrs in the presence of fluconazole by checkerboard microdilution method; format: functional
Candida albicans [11] = assay: Synergistic antifungal activity against Candida albicans 0304103 assessed as reduction in yeast to hypha transition at 32 ug/mL incubated for 2 hrs in the presence of fluconazole by inverse fluorescence microscopy; format: functional, organism-based; conditions: dose 32.0 µg/ml
Candida albicans [12] = assay: Synergetic antifungal activity against Candida albicans 10061 assessed as microbial growth inhibition incubated for 24 hrs in the presence of fluconazole by checkerboard microdilution method; format: functional
[Candida] auris [13] = Synergetic antifungal activity against Candida auris 0029 assessed as microbial growth inhibition incubated for 24 hrs in the presence of fluconazole by checkerboard microdilution method; format: functional; conditions: Candidozyma auris
Candida albicans [14] = assay: Downregulation of ERG11 expression in Candida albicans 0304103 at 32 ug/mL incubated for 24 hrs by RT q-PCR analysis; format: functional; conditions: dose 32.0 µg/ml
Candida albicans [15] = assay: microbe, parasite or virus in culture; format: functional; conditions: 0304103
Description: Antifungal activity against Candida albicans 0304103 assessed as microbial growth inhibition

K562 = assay: Antiproliferative activity against human K562 cells incubated for 48 hrs by CCK8 assay; format: functional, cell-based; conditions: K562, 48 h
Candida albicans [16] = assay: Synergistic antibiofilm activity against FLC-resistant Candida albicans 0304103 assessed as inhibition of biofilm formation at 64 ug/mL incubated for 24 hrs in presence of by XTT reduction assay relative to control; format: functional; set-up: scale not given: the % may be the effect or the level left; conditions: dose 64 µg/ml
Candida albicans [17] = assay: Downregulation of ADH5 expression in Candida albicans 0304103 at 32 ug/mL incubated for 24 hrs by RT q-PCR analysis; format: functional; conditions: dose 32.0 µg/ml
Nakaseomyces glabratus [18] = assay: Synergetic antifungal activity against Candida glabrata 4408 assessed as microbial growth inhibition incubated for 24 hrs in the presence of fluconazole by checkerboard microdilution method; format: functional
Candida albicans [19] = format: functional, 0304103; conditions: time 24 hrs
Description: Synergetic antifungal activity against Candida albicans 0304103 assessed as fractional inhibitory concentration index incubated for 24 hrs in the presence of fluconazole by checkerboard microdilution method

Candida albicans [20] = assay: Downregulation of GCA1 expression in Candida albicans 0304103 at 32 ug/mL incubated for 24 hrs in the presence of fluconazole by RT q-PCR analysis; format: functional; conditions: dose 32.0 µg/ml
Candida albicans [21] = assay: Downregulation of CDR1 expression in Candida albicans 0304103 at 32 ug/mL incubated for 24 hrs by RT q-PCR analysis; format: functional; conditions: dose 32.0 µg/ml
Candida albicans [22] = assay: Antifungal activity against Candida albicans 0304103 infected in ICR mouse assessed as decrease in kidney fungal burden at 10 mg/kg, ip administered for 5 consecutive days in the presence of fluconazole; format: functional, organism-based; conditions: time 5.0 day
in vitro = conditions: human, HUVEC cells
Description: Cytotoxicity against HUVECs assessed as inhibition of cell growth incubated for 48 hrs by CCK8 assay

Candida albicans [23] = assay: Synergetic antifungal activity against Candida albicans 10061 assessed as fractional inhibitory concentration index incubated for 24 hrs in the presence of fluconazole by checkerboard microdilution method; format: functional
Candida albicans [24] = assay: Antifungal activity against Candida albicans 9172 assessed as microbial growth inhibition; format: functional
Cryptococcus neoformans [25] = assay: Synergetic antifungal activity against Cryptococcus neoformans 011405 assessed as fractional inhibitory concentration index incubated for 24 hrs in the presence of fluconazole by checkerboard microdilution method; format: functional
Candida albicans [26] = assay: Downregulation of CDR2 expression in Candida albicans 0304103 at 32 ug/mL incubated for 24 hrs by RT q-PCR analysis; format: functional; conditions: dose 32.0 µg/ml
HEL = assay: Antiproliferative activity against human HEL cells incubated for 48 hrs by CCK8 assay; format: functional, cell-based
Candida albicans [27] = assay: Downregulation of ADH5 expression in Candida albicans 0304103 at 32 ug/mL incubated for 24 hrs in the presence of fluconazole by RT q-PCR analysis; format: functional; conditions: dose 32.0 µg/ml
Cryptococcus neoformans [28] = assay: Antifungal activity against Cryptococcus neoformans H99 assessed as fungal growth inhibition incubated for 24 hrs by broth dilution method; format: functional
Candida albicans [29] = assay: Antifungal activity against Candida albicans 0304103 infected in ICR mouse assessed as reduction in kidney fungal burden at 10 mg/kg, ip administered for 5 consecutive days; format: functional, organism-based; conditions: time 5.0 day
Histone deacetylase = assay: Inhibition of total HDAC in human HUVEC cells using Boc-Lys(Ac)-AMC as substrate preincubated for 12 hrs followed by substrate addition measured after 6 hrs by microtiter plate reader analysis; format: cell-based
Candida albicans [30] = assay: Synergetic antifungal activity against Candida albicans 9884 assessed as fractional inhibitory concentration index incubated for 24 hrs in the presence of fluconazole by checkerboard microdilution method; format: functional
Candida albicans [31] = assay: Downregulation of GCA1 expression in Candida albicans 0304103 at 32 ug/mL incubated for 24 hrs by RT q-PCR analysis; format: functional; conditions: dose 32.0 µg/ml
[Candida] auris [32] = Antifungal activity against Candida auris 0029 assessed as microbial growth inhibition; format: functional; conditions: Candidozyma auris
Candida albicans [33] = assay: Antifungal activity against Candida albicans 0304103 assessed as reduction in yeast to hypha transition at 32 ug/mL incubated for 2 hrs by inverse fluorescence microscopy; format: functional, organism-based; conditions: dose 32.0 µg/ml
Cryptococcus neoformans [34] = assay: Synergetic antifungal activity against Cryptococcus neoformans 011405 assessed as microbial growth inhibition incubated for 24 hrs in the presence of fluconazole by checkerboard microdilution method; format: functional
Candida albicans [35] = assay: Synergetic antifungal activity against Candida albicans 9172 assessed as fractional inhibitory concentration index incubated for 24 hrs in the presence of fluconazole by checkerboard microdilution method; format: functional
[Candida] auris [36] = Synergetic antifungal activity against Candida auris 0030 assessed as fractional inhibitory concentration index incubated for 24 hrs in the presence of fluconazole by checkerboard microdilution method; format: functional, Candidozyma auris
Candida albicans [37] = assay: Antibiofilm activity against FLC-resistant Candida albicans 0304103 assessed as inhibition of biofilm formation at 64 ug/mL incubated for 24 hrs by XTT reduction assay; format: functional, organism-based; conditions: dose 64.0 µg/ml
Candida albicans [38] = assay: Antifungal activity against Candida albicans 10061 assessed as microbial growth inhibition; format: functional
Cryptococcus neoformans [39] = assay: Antifungal activity against Cryptococcus neoformans 011405 assessed as microbial growth inhibition; format: functional
HL-60 = assay: Antiproliferative activity against human HL-60 cells incubated for 48 hrs by CCK8 assay; format: functional, cell-based; conditions: HL-60, 48 h
Candida albicans [40] = assay: Synergetic antifungal activity against Candida albicans 9172 assessed as microbial growth inhibition incubated for 24 hrs in the presence of fluconazole by checkerboard microdilution method; format: functional
Candida albicans [41] = assay: Synergetic antifungal activity against Candida albicans 9884 assessed as microbial growth inhibition incubated for 24 hrs in the presence of fluconazole by checkerboard microdilution method; format: functional
Nakaseomyces glabratus [42] = assay: Antifungal activity against Candida glabrata 4408 assessed as microbial growth inhibition; format: functional
Candida albicans [43] = assay: Synergistic antibiofilm activity against FLC-resistant Candida albicans 0304103 assessed as inhibition of fungal growth at 32 ug/mL and measured for 48 hrs in the presence of fluconazole by time-growth curve assay; format: functional; set-up: scale not given: the % may be the effect or the level left; conditions: dose 32 µg/ml
Candida albicans [44] = assay: microbe, parasite or virus in culture; format: functional; conditions: 0304103, time 24 hrs
Description: Synergetic antifungal activity against Candida albicans 0304103 assessed as microbial growth inhibition incubated for 24 hrs in the presence of fluconazole by checkerboard microdilution method

[Candida] auris [45] = Antifungal activity against Candida auris 0030 assessed as microbial growth inhibition; format: functional; conditions: Candidozyma auris
Candida albicans [46] = assay: Downregulation of MDR1 expression in Candida albicans 0304103 at 32 ug/mL incubated for 24 hrs by RT q-PCR analysis; format: functional; conditions: dose 32.0 µg/ml

With `Cc1nnc2n1-c1sc3c(c1C(c1ccc(Cl)cc1)=N[C@H]2CC(=O)NCc1ccc(C(=O)NO)cc1)CCCC3` the Activity (Candida albicans [1]) was “Active”, the IC50 (Histone deacetylase 1) was 2.4 µM and the Activity (Candida albicans [2]) was “Active”. For the same compound, the MIC80 (Candida albicans [3]) was greater than 64 µg/mL, the MIC80 ([Candida] auris [4]) was 32 µg/mL and the Activity (Candida albicans [5]) was “Active”. For the same compound, the Activity (Candida albicans [6]) was “inactive”, the MIC80 (Candida albicans [7]) was greater than 64 µg/mL and the “fractional inhibitory concentration index (FICI)” value ([Candida] auris [8]) was 1.5. The Activity (Candida albicans [9]) was “Active”, the “fractional inhibitory concentration index (FICI)” value (Nakaseomyces glabratus [10]) was 0.28 and the Activity (Candida albicans [11]) was “Active”. For the same compound, the MIC80 (Candida albicans [12]) was 2 µg/mL, the MIC80 ([Candida] auris [13]) was 32 µg/mL and the Activity (Candida albicans [14]) was “Active”. It also gave an MIC80 (Candida albicans [15]) greater than 64 µg/mL, an IC50 (K562) greater than 10 µM and an Activity (Candida albicans [16]) of 80%. For the same compound, the Activity (Candida albicans [17]) was “Active”, the MIC80 (Nakaseomyces glabratus [18]) was 2 µg/mL and the “fractional inhibitory concentration index (FICI)” value (Candida albicans [19]) was 0.063. The Activity (Candida albicans [20]) was “Active”, the Activity (Candida albicans [21]) was “Active” and the Activity (Candida albicans [22]) was “Active”. The IC50 at 48 h (in vitro) was 18 µM, the “fractional inhibitory concentration index (FICI)” value (Candida albicans [23]) was 0.047 and the MIC80 (Candida albicans [24]) was greater than 64 µg/mL. For the same compound, the “fractional inhibitory concentration index (FICI)” value (Cryptococcus neoformans [25]) was 0.31, the Activity (Candida albicans [26]) was “Active” and the IC50 (HEL) was 7.2 µM. The Activity (Candida albicans [27]) was “Active”, the MIC80 (Cryptococcus neoformans [28]) was 8 µg/mL (≈ 13.9 µM) and the Activity (Candida albicans [29]) was “inactive”. For the same compound, the IC50 (Histone deacetylase) was 4.3 µM, the “fractional inhibitory concentration index (FICI)” value (Candida albicans [30]) was 0.19 and the Activity (Candida albicans [31]) was “Active”. The MIC80 ([Candida] auris [32]) was greater than 64 µg/mL, the Activity (Candida albicans [33]) was “inactive” and the MIC80 (Cryptococcus neoformans [34]) was 2 µg/mL. The “fractional inhibitory concentration index (FICI)” value (Candida albicans [35]) was 0.07, the “fractional inhibitory concentration index (FICI)” value ([Candida] auris [36]) was 1.5 and the Activity (Candida albicans [37]) was “inactive”. It also gave an MIC80 (Candida albicans [38]) greater than 64 µg/mL, an MIC80 (Cryptococcus neoformans [39]) of 32 µg/mL (≈ 55.6 µM) and an IC50 (HL-60) of 3.1 µM. It also gave an MIC80 (Candida albicans [40]) of 4 µg/mL, an MIC80 (Candida albicans [41]) of 4 µg/mL and an MIC80 (Nakaseomyces glabratus [42]) of 8 µg/mL (≈ 13.9 µM). For the same compound, the Activity (Candida albicans [43]) was 100%, the MIC80 (Candida albicans [44]) was 2 µg/mL (≈ 3.48 µM) and the MIC80 ([Candida] auris [45]) was greater than 64 µg/mL. For the same compound, the Activity (Candida albicans [46]) was “Active”.
For `Cc1nnc2n1-c1ccccc1C(c1ccccc1)=N[C@H]2CC(=O)Nc1ccc(CC(=O)NO)cc1`, the IC50 (Histone deacetylase 1) was 0.73 µM, the MIC80 (Candida albicans [3]) was greater than 64 µg/mL and the MIC80 (Candida albicans [15]) was greater than 64 µg/mL. The IC50 (K562) was greater than 10 µM, the “fractional inhibitory concentration index (FICI)” value (Candida albicans [19]) was 0.19 and the IC50 at 48 h (in vitro) was 24 µM. It also gave an IC50 (HEL) greater than 10 µM, an MIC80 (Cryptococcus neoformans [28]) of 32 µg/mL (≈ 66.6 µM) and an IC50 (Histone deacetylase) of 6.5 µM. For the same compound, the IC50 (HL-60) was 4.4 µM and the MIC80 (Candida albicans [44]) was 8 µg/mL (≈ 16.6 µM).
